Experimental data: US6914045B2, “Glycopeptide antibiotics” (Wyeth Holdings Corporation, priority 2001, dated 2005)

Columns and labels:
Assay in all cases: in vitro antibacterial evaluation, MIC by broth dilution
Type in all cases: cell-based
Escherichia coli = conditions: 18 hours at 35° C.
Enterococcus sp. = conditions: broth dilution, 18 hours at 35° C.
How it was run: (§1)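 Test organisms, which included recent clinical isolates resistant to methicillin, penicillin and/or vancomycin, were inoculated at 5×10^5 CFU/mL into Muller-Hinton II […] containing antibiotic at 64-0.06 μg/mL. Minimum inhibitory concentrations were then read as the lowest level inhibiting growth.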

Streptococcus sp. = conditions: broth dilution, 18 hours at 35° C.
How it was run: as §1

Staphylococcus sp. = conditions: broth dilution, 18 hours at 35° C.
How it was run: as §1

MIC Escherichia coli (ATCC 25922) (Escherichia coli): >128 µg/mL
MIC Escherichia coli (GC 4559) (Escherichia coli): >128 µg/mL
MIC Escherichia coli (GC 4560) (Escherichia coli): 0.25 to 4 µg/mL
MIC Enterococcus avium (GC 4558) (Enterococcus sp.): 8 to 64 µg/mL
MIC Enterococcus faecalis (ATCC 29212) (Enterococcus sp.): 8 to 128 µg/mL
MIC Enterococcus faecalis (GC 2242) (Enterococcus sp.): 8 to 64 µg/mL
MIC Enterococcus faecalis (GC 2691) (Enterococcus sp.): 16 to 64 µg/mL
MIC Enterococcus faecalis (GC 3059) (Enterococcus sp.): 16 to 128 µg/mL
MIC Enterococcus faecalis (GC 4552) (Enterococcus sp.): 8 to 128 µg/mL
MIC Enterococcus faecalis (GC 4553) (Enterococcus sp.): 8 to 128 µg/mL
MIC Enterococcus faecalis (GC 4554) (Enterococcus sp.): 16 to 128 µg/mL
MIC Enterococcus faecalis (GC 6189) (Enterococcus sp.): 8 to 64 µg/mL
MIC Enterococcus faecium (GC 2243) (Enterococcus sp.): 8 to 128 µg/mL
MIC Enterococcus faecium (GC 4556) (Enterococcus sp.): 16 to 128 µg/mL
MIC Enterococcus faecium (GC 4557) (Enterococcus sp.): 4 to 16 µg/mL
MIC Enterococcus faecalis (ATCC 29212) (Enterococcus sp.; inoculum 5×10^5 CFU/mL, strain ATCC 29212): 8 to 128 µg/mL
MIC Enterococcus faecalis (GC 2242) (Enterococcus sp.; inoculum 5×10^5 CFU/mL, strain GC 2242): 8 to 64 µg/mL
MIC Enterococcus faecium (GC 2243) (Enterococcus sp.; inoculum 5×10^5 CFU/mL, strain GC 2243): 8 to 128 µg/mL
MIC Enterococcus faecalis (GC 2691) (Enterococcus sp.; inoculum 5×10^5 CFU/mL, strain GC 2691): 16 to 64 µg/mL
MIC Enterococcus faecalis (GC 3059) (Enterococcus sp.; inoculum 5×10^5 CFU/mL, strain GC 3059): 16 to 128 µg/mL
MIC Enterococcus faecalis (GC 4552) (Enterococcus sp.; inoculum 5×10^5 CFU/mL, strain GC 4552): 8 to 128 µg/mL
MIC Enterococcus faecalis (GC 4553) (Enterococcus sp.; inoculum 5×10^5 CFU/mL, strain GC 4553): 8 to 128 µg/mL
MIC Enterococcus faecalis (GC 4554) (Enterococcus sp.; inoculum 5×10^5 CFU/mL, strain GC 4554): 16 to 128 µg/mL
MIC Enterococcus faecium (GC 4556) (Enterococcus sp.; inoculum 5×10^5 CFU/mL, strain GC 4556): 16 to 128 µg/mL
MIC Enterococcus faecium (GC 4557) (Enterococcus sp.; inoculum 5×10^5 CFU/mL, strain GC 4557): 4 to 16 µg/mL
MIC Enterococcus avium (GC 4558) (Enterococcus sp.; inoculum 5×10^5 CFU/mL, strain GC 4558): 8 to 64 µg/mL
MIC Enterococcus faecalis (GC 6189) (Enterococcus sp.; inoculum 5×10^5 CFU/mL, strain GC 6189): 8 to 64 µg/mL
MIC Streptococcus agalactiae (GC 4564) (Streptococcus sp.): 1 to 8 µg/mL
MIC Streptococcus pneumoniae (ATCC 6301) (Streptococcus sp.): 0.25 to 2 µg/mL
MIC Streptococcus pneumoniae (GC 1894) (Streptococcus sp.): <0.06 to 2 µg/mL
MIC Streptococcus pneumoniae (GC 4565) (Streptococcus sp.): 0.5 to 8 µg/mL
MIC Streptococcus pyogenes (GC 4563) (Streptococcus sp.): 1 to 8 µg/mL
MIC Streptococcus pneumoniae (ATCC 6301) (Streptococcus sp.; inoculum 5×10^5 CFU/mL, strain ATCC 6301): 0.25 to 2 µg/mL
MIC Streptococcus pneumoniae (GC 1894) (Streptococcus sp.; inoculum 5×10^5 CFU/mL, strain GC 1894): <0.06 to 2 µg/mL
MIC Streptococcus pyogenes (GC 4563) (Streptococcus sp.; inoculum 5×10^5 CFU/mL, strain GC 4563): 1 to 8 µg/mL
MIC Streptococcus agalactiae (GC 4564) (Streptococcus sp.; inoculum 5×10^5 CFU/mL, strain GC 4564): 1 to 8 µg/mL
MIC Streptococcus pneumoniae (GC 4565) (Streptococcus sp.; inoculum 5×10^5 CFU/mL, strain GC 4565): 0.5 to 8 µg/mL
MIC Coagulase Negative Staphylococcus (GC 4547) (Staphylococcus sp.): 4 to 32 µg/mL
MIC Coagulase Negative Staphylococcus (GC 4548) (Staphylococcus sp.): 2 to 32 µg/mL
MIC Coagulase Negative Staphylococcus (GC 4549) (Staphylococcus sp.): 2 to 16 µg/mL
MIC Coagulase Negative Staphylococcus (GC 4551) (Staphylococcus sp.): 8 to 32 µg/mL
MIC Coagulase Negative Staphylococcus (GC 6257) (Staphylococcus sp.): 1 to 32 µg/mL
MIC Staphylococcus aureus (ATCC 29213) (Staphylococcus sp.): 4 to 64 µg/mL
MIC Staphylococcus aureus (GC 1131) (Staphylococcus sp.): 4 to 64 µg/mL
MIC Staphylococcus aureus (GC 3051) (Staphylococcus sp.): 4 to 64 µg/mL
MIC Staphylococcus aureus (GC 3053) (Staphylococcus sp.): 8 to 64 µg/mL
MIC Staphylococcus aureus (GC 4541) (Staphylococcus sp.): 4 to 32 µg/mL
MIC Staphylococcus aureus (GC 4542) (Staphylococcus sp.): 4 to 32 µg/mL
MIC Staphylococcus aureus (GC 4544) (Staphylococcus sp.): 4 to 64 µg/mL
MIC Staphylococcus aureus (GC 4545) (Staphylococcus sp.): 4 to 32 µg/mL
MIC Staphylococcus aureus-SMITH (GC 4543) (Staphylococcus sp.): 4 to 64 µg/mL
MIC Staphylococcus aureus (ATCC 29213) (Staphylococcus sp.; strain ATCC 29213): 4 to 64 µg/mL
MIC Staphylococcus aureus (GC 1131) (Staphylococcus sp.; strain GC 1131): 4 to 64 µg/mL
MIC Staphylococcus aureus (GC 3051) (Staphylococcus sp.; strain GC 3051): 4 to 64 µg/mL
MIC Staphylococcus aureus (GC 3053) (Staphylococcus sp.; strain GC 3053): 8 to 64 µg/mL
MIC Staphylococcus aureus (GC 4541) (Staphylococcus sp.; strain GC 4541): 4 to 32 µg/mL
MIC Staphylococcus aureus (GC 4542) (Staphylococcus sp.; strain GC 4542): 4 to 32 µg/mL
MIC Staphylococcus aureus-SMITH (GC 4543) (Staphylococcus sp.; strain GC 4543): 4 to 64 µg/mL
MIC Staphylococcus aureus (GC 4544) (Staphylococcus sp.; strain GC 4544): 4 to 64 µg/mL
MIC Staphylococcus aureus (GC 4545) (Staphylococcus sp.; strain GC 4545): 4 to 32 µg/mL
MIC Coagulase Negative Staphylococcus (GC 4547) (Staphylococcus sp.; strain GC 4547): 4 to 32 µg/mL
MIC Coagulase Negative Staphylococcus (GC 4548) (Staphylococcus sp.; strain GC 4548): 2 to 32 µg/mL
MIC Coagulase Negative Staphylococcus (GC 4549) (Staphylococcus sp.; strain GC 4549): 2 to 16 µg/mL
MIC Coagulase Negative Staphylococcus (GC 4551) (Staphylococcus sp.; strain GC 4551): 8 to 32 µg/mL
MIC Coagulase Negative Staphylococcus (GC 6257) (Staphylococcus sp.; strain GC 6257): 1 to 32 µg/mL
SMILES: CC(c1ccccc1)C1NC(=O)CNC(=O)C(CO)NC(=O)C(C(O)C2CNC(=N)N2C2OC(CO)C(O)C(O)C2O)NC(=O)C(C(O)C2CNC(=N)N2)NC(=O)C(Cc2ccc(OC3OC(CO)C(OC4OC(CO)C(O)C(O)C4OCc4ccc(OCc5ccccc5)cc4)C(O)C3O)cc2)NC1=O (stereo not drawn) [Example 231b, Cyclo[glycyl-β-methylphenylalanyl-O-[4-O-[2-O-[4-(phenylmethoxy)benzyl]hexopyranosyl]-hexopyranosyl]tyrosyl-3-(2-iminoimidazolidin-4-yl)seryl-3-(3-hexopyranosyl-2-iminoimidazolidin-4-yl)serylseryl]]
MIC Staphylococcus haemolyticus (GC 4546) (Staphylococcus sp.): 4 to 32 µg/mL
MIC Staphylococcus haemolyticus (GC 4546) (Staphylococcus sp.; strain GC 4546): 4 to 32 µg/mL
